{
  "source": "paper PMC2734176",
  "about": "“The Aurora Kinase in Trypanosoma brucei Plays Distinctive Roles in Metaphase-Anaphase Transition and Cytokinetic Initiation” (PLoS Pathogens, 2009)",
  "target": "T1, TbAUK1 (recombinant GST-tagged TbAUK1) (Trypanosoma brucei, UniProt Q384J7)",
  "T1 construct": "gene AUK1; no tag cleavage mentioned; tested without TbCPC1/TbCPC2",
  "T1 sequence (Q384J7 1-309)": "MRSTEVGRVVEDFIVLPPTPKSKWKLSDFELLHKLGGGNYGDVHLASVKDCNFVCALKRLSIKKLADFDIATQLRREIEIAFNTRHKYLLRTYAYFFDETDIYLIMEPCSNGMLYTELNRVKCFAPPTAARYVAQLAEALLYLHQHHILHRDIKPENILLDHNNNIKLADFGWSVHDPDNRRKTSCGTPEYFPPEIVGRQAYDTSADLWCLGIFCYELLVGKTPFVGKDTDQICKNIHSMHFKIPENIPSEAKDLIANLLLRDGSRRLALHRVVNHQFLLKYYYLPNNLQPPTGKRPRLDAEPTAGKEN",
  "assay": "in vitro kinase assay, […] phosphorylation of GST-histone H3, SDS-PAGE and Phosphor-Imager",
  "format": "biochemical",
  "data": [
    {"compound": "Cc1cc(Nc2cc(N3CCN(C)CC3)nc(Sc3ccc(NC(=O)C4CC4)cc3)n2)[nH]n1", "note": "[VX-680]", "values": [
      {"measurement": "IC50", "result": 190, "unit": "nM"}
    ]}
  ]
}
